The values that follow come from patent publication US20100267697A1, “ION CHANNEL MODULATORS” (Wyeth, priority 2006, published 2010).

Where a name gives a salt, the structure may show the parent alone.

T1 sequence (Q00975 whole entry): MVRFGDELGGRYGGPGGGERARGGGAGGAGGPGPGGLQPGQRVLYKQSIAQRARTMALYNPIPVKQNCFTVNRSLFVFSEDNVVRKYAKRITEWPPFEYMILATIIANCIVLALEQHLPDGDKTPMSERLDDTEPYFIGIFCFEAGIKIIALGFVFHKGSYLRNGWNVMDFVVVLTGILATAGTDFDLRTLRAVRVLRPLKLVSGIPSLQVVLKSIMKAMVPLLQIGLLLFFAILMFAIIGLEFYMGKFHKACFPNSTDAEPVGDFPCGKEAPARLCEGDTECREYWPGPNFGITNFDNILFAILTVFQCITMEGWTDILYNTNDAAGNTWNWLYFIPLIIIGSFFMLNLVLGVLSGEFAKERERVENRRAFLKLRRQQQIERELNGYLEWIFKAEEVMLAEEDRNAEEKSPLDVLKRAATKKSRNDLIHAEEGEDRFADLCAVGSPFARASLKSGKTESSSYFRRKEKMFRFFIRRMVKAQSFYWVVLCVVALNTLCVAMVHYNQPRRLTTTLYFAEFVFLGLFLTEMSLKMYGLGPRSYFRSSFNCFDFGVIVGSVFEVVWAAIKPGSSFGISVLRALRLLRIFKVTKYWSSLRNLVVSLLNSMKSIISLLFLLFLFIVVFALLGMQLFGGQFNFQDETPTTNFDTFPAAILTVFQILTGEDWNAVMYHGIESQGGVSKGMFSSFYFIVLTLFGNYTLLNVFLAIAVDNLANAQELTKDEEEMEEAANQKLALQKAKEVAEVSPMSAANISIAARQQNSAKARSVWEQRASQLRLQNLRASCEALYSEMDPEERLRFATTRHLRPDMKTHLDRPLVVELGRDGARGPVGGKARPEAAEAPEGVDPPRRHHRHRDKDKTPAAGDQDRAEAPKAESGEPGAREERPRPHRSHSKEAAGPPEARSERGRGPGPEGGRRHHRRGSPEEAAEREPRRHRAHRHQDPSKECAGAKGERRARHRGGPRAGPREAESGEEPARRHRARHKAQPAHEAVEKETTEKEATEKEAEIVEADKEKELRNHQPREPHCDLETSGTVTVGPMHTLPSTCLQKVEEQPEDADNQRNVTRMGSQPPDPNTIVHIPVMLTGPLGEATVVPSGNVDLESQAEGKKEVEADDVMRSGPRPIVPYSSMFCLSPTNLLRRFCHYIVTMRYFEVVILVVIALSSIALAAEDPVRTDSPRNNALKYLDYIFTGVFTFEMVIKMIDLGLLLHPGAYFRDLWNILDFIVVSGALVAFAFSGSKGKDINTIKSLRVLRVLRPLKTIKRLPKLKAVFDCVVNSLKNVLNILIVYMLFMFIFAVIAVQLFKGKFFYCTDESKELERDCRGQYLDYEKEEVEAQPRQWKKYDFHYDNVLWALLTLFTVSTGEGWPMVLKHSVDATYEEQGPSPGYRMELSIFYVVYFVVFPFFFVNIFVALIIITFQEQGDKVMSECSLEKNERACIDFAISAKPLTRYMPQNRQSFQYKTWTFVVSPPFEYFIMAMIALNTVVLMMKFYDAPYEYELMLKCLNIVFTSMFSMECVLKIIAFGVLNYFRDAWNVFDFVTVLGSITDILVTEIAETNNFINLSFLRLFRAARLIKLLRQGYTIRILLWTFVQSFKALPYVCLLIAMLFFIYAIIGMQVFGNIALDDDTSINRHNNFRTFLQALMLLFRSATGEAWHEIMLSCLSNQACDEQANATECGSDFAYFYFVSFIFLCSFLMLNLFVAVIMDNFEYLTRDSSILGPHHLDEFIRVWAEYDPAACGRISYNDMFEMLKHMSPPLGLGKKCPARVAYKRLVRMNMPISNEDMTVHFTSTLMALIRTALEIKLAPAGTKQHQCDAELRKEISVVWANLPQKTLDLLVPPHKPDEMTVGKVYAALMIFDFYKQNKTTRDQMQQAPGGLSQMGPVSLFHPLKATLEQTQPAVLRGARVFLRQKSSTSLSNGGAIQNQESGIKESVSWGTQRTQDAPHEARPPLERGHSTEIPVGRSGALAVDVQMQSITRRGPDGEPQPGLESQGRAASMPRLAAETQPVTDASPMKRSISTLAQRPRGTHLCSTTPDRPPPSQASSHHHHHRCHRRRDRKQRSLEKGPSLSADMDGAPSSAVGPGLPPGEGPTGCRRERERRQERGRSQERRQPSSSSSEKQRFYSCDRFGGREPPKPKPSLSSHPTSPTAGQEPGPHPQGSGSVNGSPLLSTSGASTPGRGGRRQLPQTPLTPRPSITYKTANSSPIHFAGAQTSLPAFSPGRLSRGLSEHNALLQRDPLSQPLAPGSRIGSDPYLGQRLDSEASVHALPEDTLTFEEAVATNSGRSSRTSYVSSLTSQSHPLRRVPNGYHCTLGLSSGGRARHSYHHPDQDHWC
T1 sequence (P54284 whole entry partner): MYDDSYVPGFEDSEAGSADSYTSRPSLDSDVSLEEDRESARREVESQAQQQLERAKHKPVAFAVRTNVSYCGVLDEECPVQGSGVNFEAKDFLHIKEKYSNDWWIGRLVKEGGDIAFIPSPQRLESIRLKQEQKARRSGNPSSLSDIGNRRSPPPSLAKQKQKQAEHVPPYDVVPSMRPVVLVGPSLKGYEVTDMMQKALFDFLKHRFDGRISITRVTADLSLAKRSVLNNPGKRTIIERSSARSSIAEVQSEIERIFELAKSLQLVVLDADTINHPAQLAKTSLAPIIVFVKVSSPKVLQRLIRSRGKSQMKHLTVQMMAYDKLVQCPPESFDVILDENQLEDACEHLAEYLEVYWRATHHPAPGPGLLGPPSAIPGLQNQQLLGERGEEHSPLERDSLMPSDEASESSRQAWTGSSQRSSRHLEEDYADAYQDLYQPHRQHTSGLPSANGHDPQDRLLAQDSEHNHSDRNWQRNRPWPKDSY
T1 sequence (P54289 25-946 partner limits assumed): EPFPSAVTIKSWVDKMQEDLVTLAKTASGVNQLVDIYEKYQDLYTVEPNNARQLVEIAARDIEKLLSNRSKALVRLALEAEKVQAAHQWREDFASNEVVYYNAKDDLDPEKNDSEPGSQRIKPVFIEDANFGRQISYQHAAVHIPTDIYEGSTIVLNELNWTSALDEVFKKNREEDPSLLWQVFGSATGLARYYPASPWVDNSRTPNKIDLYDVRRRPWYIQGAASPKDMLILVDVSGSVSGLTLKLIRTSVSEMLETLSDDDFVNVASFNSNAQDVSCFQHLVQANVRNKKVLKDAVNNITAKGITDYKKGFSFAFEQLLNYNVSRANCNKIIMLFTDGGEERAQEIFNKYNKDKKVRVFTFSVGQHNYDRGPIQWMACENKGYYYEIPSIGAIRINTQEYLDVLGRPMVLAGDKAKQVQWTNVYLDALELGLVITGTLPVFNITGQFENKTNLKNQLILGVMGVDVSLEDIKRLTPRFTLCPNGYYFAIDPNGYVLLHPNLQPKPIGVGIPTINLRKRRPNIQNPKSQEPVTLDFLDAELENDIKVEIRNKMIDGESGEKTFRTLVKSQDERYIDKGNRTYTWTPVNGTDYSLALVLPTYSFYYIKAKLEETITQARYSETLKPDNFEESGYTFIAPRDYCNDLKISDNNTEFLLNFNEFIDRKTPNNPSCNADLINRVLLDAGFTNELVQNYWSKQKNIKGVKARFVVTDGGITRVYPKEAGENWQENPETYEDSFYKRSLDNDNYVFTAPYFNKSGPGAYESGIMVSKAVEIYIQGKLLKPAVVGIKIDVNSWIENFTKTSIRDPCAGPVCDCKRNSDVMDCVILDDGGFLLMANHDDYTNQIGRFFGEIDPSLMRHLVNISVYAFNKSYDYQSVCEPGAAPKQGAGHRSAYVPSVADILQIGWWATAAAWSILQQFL
T1 sequence (P54289 947-1103 partner limits assumed): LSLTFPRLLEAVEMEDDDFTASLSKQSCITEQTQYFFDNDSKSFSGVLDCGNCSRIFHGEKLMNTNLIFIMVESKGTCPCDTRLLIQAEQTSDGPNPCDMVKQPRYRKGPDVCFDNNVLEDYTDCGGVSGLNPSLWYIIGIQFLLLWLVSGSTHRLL

This assay has as its target T1, human Cav2.2 (composed of the subunits α1, β3 and α2δ) (Homo sapiens, UniProt Q00975).
T1 construct: expressed in transfected cells
The experiment in a line: FLIPR assay (TSA201 cells stably transfected with human Cav2.2 and human Kir2.3, FLUO-4 Ca2+ signal, KCl depolarization). The class given is cell-based. The following applies: 70 mM KCl depolarization, average value. The procedure: TSA201 cells stably transfected with human Cav2.2 (composed of the subunits α1, β3 and α2δ) and human Kir2.3 to enhance the FLIPR Ca^2+ signal were used. These cells were plated on 384-well collagen-coated plates (BD Bioscience, Franklin Lakes, N.J.) at a density of 2×10^4 cells/well one day prior to the FLIPR assay. […] Culture media is removed and replaced with 25 μl of the FLUO-4 dye solution and incubated for one hour at room temperature. The cell plate is then placed on the FLIPR where the dye is aspirated off and replaced with 25 μl of HBSS (Invitrogen, Carlsbad, Calif.). The HBSS is then aspirated and replaced with […] of compound which is diluted in HBSS with 1% DMSO. Compounds are incubated on the cells for 15 minutes. The cells are then depolarized with 25 μl of 140 mM KCl solution (also containing 2 mM CaCl2 and 10 mM HEPES). The final concentration of KCl on the cells is 70 mM.
The IC50 is the concentration at which inhibition is half-maximal. Read a high IC50 as lower potency. The molecule `CN1CCN(c2ccc(CN(C(=O)NC(C)(C)C)c3ccc(F)cc3)cn2)CC1` [Compound 126, N′-(tert-butyl)-N-(4-fluorophenyl)-N-{[6-(4-methylpiperazin-1-yl)pyridin-3-yl]methyl}urea] gave an IC50 of 30 µM.

As to `CC(CC(=O)N(Cc1ccc(N(C)CCc2ccccn2)nc1)c1ccc(F)cc1)C(F)(F)F` (centres unmarked) [Compound 127], it took 2.6 µM to reach half-maximal inhibition (IC50).

For `O=C(C1CCCCC1)N(Cc1ccc(N2CCN(c3ccccn3)CC2)nc1)c1ccc(F)cc1` [Compound 128, N-(4-fluorophenyl)-N-{[6-(4-pyridin-2-ylpiperazin-1-yl)pyridin-3-yl]methyl}cyclohexanecarboxamide], the IC50 stood at 9.1 µM.

Molecule `CCN(CC)c1ccc(CN(C(=O)Cc2cccs2)c2ccc(F)cc2)cn1` [Compound 129] yielded an IC50 of 1.5 µM.

The molecule `CN(CCO)c1ccc(CN(C(=O)C(C)(C)C)c2ccc(F)cc2)cn1` [Compound 130, N-(4-fluorophenyl)-N-({6-[(2-hydroxyethyl)(methyl)amino]pyridin-3-yl}methyl)-2,2-dimethylpropanamide] had an IC50 of 14.8 µM.

For the molecule `Cc1ccc(OCCN(C)c2ccc(CN(C(=O)C(C)(C)C)c3ccc(F)cc3)cn2)nc1` [Compound 131, N-(4-fluorophenyl)-2,2-dimethyl-N-{[6-(methyl{2-[(5-methylpyridin-2-yl)oxy]ethyl}amino)pyridin-3-yl]methyl}propanamide], the IC50 amounted to 8.1 µM.

As for `CC(C)(C)C(=O)N(Cc1ccc(N2CCCC2)nc1)c1ccc(F)cc1` [Compound 132, N-(4-fluorophenyl)-2,2-dimethyl-N-[(6-pyrrolidin-1-ylpyridin-3-yl)methyl]propanamide], 8.2 µM corresponded to half-maximal inhibition (IC50).

`CCN(CC)C1CCN(c2ccc(CN(C(=O)C(C)(C)C)c3ccc(F)cc3)cn2)C1` (centres unmarked) [Compound 133, N-({6-[3-(diethylamino)pyrrolidin-1-yl]pyridin-3-yl}methyl)-N-(4-fluorophenyl)-2,2-dimethylpropanamide] registered an IC50 of 11.5 µM.

The molecule `CC(C)(C)C(=O)N(Cc1csc(N2CCCCC2)n1)c1ccc(F)cc1` [Compound 134, N-(4-fluorophenyl)-2,2-dimethyl-N-[(2-piperidin-1-yl-1,3-thiazol-4-yl)methyl]propanamide] returned an IC50 of 4.4 µM.

With `CCC(=O)N(CCc1cccnc1)c1ccc(CN(C(=O)C(C)(C)C)c2ccc(F)cc2)cn1` [Compound 135], the IC50 stood at 1.35 µM.

With `CC(C)(C)C(=O)N(Cc1csc(N2CCOCC2)n1)c1ccc(F)cc1` [Compound 136, N-(4-fluorophenyl)-2,2-dimethyl-N-[(2-morpholin-4-yl-1,3-thiazol-4-yl)methyl]propanamide], the IC50 came to 5.6 µM.

`O=C(C1CCCCC1)N(Cc1csc(N2CCOCC2)n1)c1ccc(F)cc1` [Compound 137, N-(4-fluorophenyl)-N-[(2-morpholin-4-yl-1,3-thiazol-4-yl)methyl]cyclohexanecarboxamide] came in with an IC50 of 11.2 µM.

`CCC(C)(C)C(=O)N(Cc1csc(N2CCOCC2)n1)c1ccc(F)cc1` [Compound 138, N-(4-fluorophenyl)-2,2-dimethyl-N-[(2-morpholin-4-yl-1,3-thiazol-4-yl)methyl]butanamide] came in with an IC50 of 14.5 µM.

As to `CCN(c1ccc(CN(C(=O)C(C)(C)C)c2ccc(F)cc2)cn1)C1CC1` [Compound 139, N-({6-[cyclopropyl(ethyl)amino]pyridin-3-yl}methyl)-N-(4-fluorophenyl)-2,2-dimethylpropanamide], the IC50 was found to be 1.3 µM.

The molecule `CC(C)(C)C(=O)N(Cc1csc(N2CCCC2)n1)c1ccc(F)cc1` [Compound 140, N-(4-fluorophenyl)-2,2-dimethyl-N-[(2-pyrrolidin-1-yl-1,3-thiazol-4-yl)methyl]propanamide] had an IC50 of 4.4 µM.

In the case of `CN(c1ccc(F)cc1)c1nc(CN(C(=O)C(C)(C)C)c2ccc(F)cc2)cs1` [Compound 141, N-(4-fluorophenyl)-N-({2-[(4-fluorophenyl)(methyl)amino]-1,3-thiazol-4-yl}methyl)-2,2-dimethylpropanamide], the IC50 worked out at 7.6 µM.

`COc1ccc(N(C)c2nc(CN(C(=O)C(C)(C)C)c3ccc(F)cc3)cs2)cc1` [Compound 142, N-(4-fluroophenyl)-N-({2-[(4-methoxyphenyl)(methyl)amino]-1,3-thiazol-4-yl}methyl)-2,2-dimethylpropanamide] returned an IC50 of 6.8 µM.

The molecule `CCN(c1nc(CN(C(=O)C(C)(C)C)c2ccc(F)cc2)cs1)C1CC1` [Compound 143, N-({2-[cyclopropyl(ethyl)amino]-1,3-thiazol-4-yl}methyl)-N-(4-fluorophenyl)-2,2-dimethylpropanamide] returned an IC50 of 3.8 µM.

As for `CC(C)(C)C(=O)N(Cc1csc(Br)n1)c1ccc(F)cc1` [Compound 144, N-[(2-bromo-1,3-thiazol-4-yl)methyl]-N-(4-fluorophenyl)-2,2-dimethylpropanamide], the midpoint of inhibition, the IC50, lay at 3.2 µM.

Consider `CC1CN(c2nc(CN(C(=O)C(C)(C)C)c3ccc(F)cc3)cs2)CC(C)N1` (centres unmarked) [Compound 145, N-{[2-(3,5-dimethylpiperazin-1-yl)-1,3-thiazol-4-yl]methyl}-N-(4-fluorophenyl)-2,2-dimethylpropanamide], for which it took 18.5 µM to reach half-maximal inhibition (IC50).

In the case of `CC(C)(C)OC(=O)N1CCN(c2nc(CN(C(=O)C(C)(C)C)c3ccc(F)cc3)cs2)CC1` [Compound 146, tert-butyl 4-(4-{[(2,2-dimethylpropanoyl)(4-fluorophenyl)amino]methyl}--1,3-thiazol-2-yl)piperazine-1-carboxylate], half-maximal inhibition (IC50) required 35.4 µM.

`CC(C)(C)C(=O)N(Cc1csc(N2CCN(c3ccccc3)CC2)n1)c1ccc(F)cc1` [Compound 147, N-(4-fluorophenyl)-2,2-dimethyl-N-{[2-(4-phenylpiperazin-1-yl)-1,3-thiazol-4-yl]methyl}propanamide] displayed an IC50 of 2.8 µM.

Molecule `CC(C)N1CCN(c2nc(CN(C(=O)C(C)(C)C)c3ccc(F)cc3)cs2)CC1` [Compound 148, N-(4-fluroophenyl)-N-{[2-(4-isopropylpiperazin-1-yl)-1,3-thiazol-4-yl]methyl}-2,2-dimethylpropanamide] had an IC50 of 15.4 µM.

`CC(C)(C)C(=O)N(Cc1csc(N2CCN(c3ccccn3)CC2)n1)c1ccc(F)cc1` [Compound 149, N-(4-fluorophenyl)-2,2-dimethyl-N-{[2-(4-pyridin-2-ylpiperazin-1-yl)--1,3-thiazol-4-yl]methyl}propanamide] returned an IC50 of 8.1 µM.

For `CN1CCN(c2nc(CN(C(=O)C(C)(C)C)c3ccc(F)cc3)cs2)CC1` [Compound 150, N-(4-fluorophenyl)-2,2-dimethyl-N-{[2-(4-methylpiperazin-1-yl)-1,3-thiazol-4-yl]methyl}propanamide], the IC50 was determined as 10.6 µM.

Turning to `CC(C)(C)C(=O)N(Cc1csc(N2CCN(c3ncccn3)CC2)n1)c1ccc(F)cc1` [Compound 151, N-(4-fluorophenyl)-2,2-dimethyl-N-{[2-(4-pyrimidin-2-ylpiperazin-1-yl)-1,3-thiazol-4-yl]methyl}propanamide dihydrochloride], the midpoint of inhibition, the IC50, lay at 4 µM.

As to `CC(C)(C)C(=O)N(Cc1csc(N2CCNCC2)n1)c1ccc(F)cc1` [Compound 152, N-(4-fluorophenyl)-2,2-dimethyl-N-[(2-piperazin-1-yl-1,3-thiazol-4-yl)methyl]propanamide], it took 8.3 µM to reach half-maximal inhibition (IC50).

`CN(C)CCNc1nc(CN(C(=O)C(C)(C)C)c2ccc(F)cc2)cs1` [Compound 153, N-[(2-{[2-(dimethylamino)ethyl]amino}-1,3-thiazol-4-yl)methyl]-N-(4-fluorophenyl)-2,2-dimethylpropanamide] showed an IC50 of 12.9 µM.

Molecule `CN(C)CCCNc1nc(CN(C(=O)C(C)(C)C)c2ccc(F)cc2)cs1` [Compound 154] displayed an IC50 of 9 µM.

`CN(C)CCCCNc1nc(CN(C(=O)C(C)(C)C)c2ccc(F)cc2)cs1` [Compound 155, N-[(2-{[4-(dimethylamino)butyl]amino}-1,3-thiazol-4-yl)methyl]-N-(4-fluorophenyl)-2,2-dimethylpropanamide]: the midpoint of inhibition, the IC50, lay at 8.5 µM.

`CC(C)(C)C(=O)N(Cc1csc(NC2CCCC2)n1)c1ccc(F)cc1` [Compound 156, N-{[2-(cyclopentylamino)-1,3-thiazol-4-yl]methyl}-N-(4-fluorophenyl)-2,2-dimethylpropanamide] had an IC50 of 3 µM.

The molecule `CC(C)(C)C(=O)N(Cc1csc(NC2CCCCC2)n1)c1ccc(F)cc1` [Compound 157, N-{[2-(cyclohexylamino)-1,3-thiazol-4-yl]methyl}-N-(4-fluorophenyl)-2,2-dimethylpropanamide] yielded an IC50 of 8.8 µM.

On to `CC(C)(C)C(=O)N(Cc1csc(Nc2ccc(F)cc2)n1)c1ccc(F)cc1` [Compound 158, N-(4-fluroophenyl)-N-({2-[(4-fluorophenyl)amino]-1,3-thiazol-4-yl}methyl)-2,2-dimethylpropanamide], for which 9.4 µM corresponded to half-maximal inhibition (IC50).

For `CC(C)(C)C(=O)N(Cc1csc(Nc2ccccc2F)n1)c1ccc(F)cc1` [Compound 159, N-(4-fluorophenyl)-N-({2-[(2-fluorophenyl)amino]-1,3-thiazol-4-yl}methyl)-2,2-dimethylpropanamide], the IC50 came out at 10.2 µM.

For `CNc1nc(CN(C(=O)C(C)(C)C)c2ccc(F)cc2)cs1` [Compound 160, N-(4-fluorophenyl)-2,2-dimethyl-N-{[2-(methylamino)-1,3-thiazol-4-yl]methyl}propanamide], 6.1 µM corresponded to half-maximal inhibition (IC50).
